Tests used:
Aurora A = target: T1, Aurora A (Homo sapiens, UniProt O14965); experiment: Aurora A enzyme inhibition (time-resolved fluorescence, STK substrate-2); format: biochemical; conditions: 1 mM ATP
T1 sequence (O14965 1-403): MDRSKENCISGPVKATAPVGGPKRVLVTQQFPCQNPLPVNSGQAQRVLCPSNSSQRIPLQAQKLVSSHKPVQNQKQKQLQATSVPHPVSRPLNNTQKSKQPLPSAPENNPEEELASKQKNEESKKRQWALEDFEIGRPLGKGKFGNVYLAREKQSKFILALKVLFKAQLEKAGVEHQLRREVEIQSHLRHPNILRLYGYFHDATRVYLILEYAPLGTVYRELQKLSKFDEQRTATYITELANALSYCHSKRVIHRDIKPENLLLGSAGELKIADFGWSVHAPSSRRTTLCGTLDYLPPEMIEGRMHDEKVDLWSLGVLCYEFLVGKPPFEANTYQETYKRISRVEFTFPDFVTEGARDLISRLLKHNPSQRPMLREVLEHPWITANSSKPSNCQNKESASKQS
Procedure, shortened: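 Phosphorylation of biotinylated STK substrate-2 at 1 mM ATP, 1 h, Hepes buffer pH 7.4 (MgCl2, sodium orthovanadate, Triton X-100). After EDTA quench, 665/615 nm time-resolved fluorescence ratio read via europium anti-phospho antibody and SA-XL665; IC50 from exponential fit versus inhibitor concentration.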

NCI-H1299 cells = experiment: Induction of polyploidy in H1299; format: cell-based, Human; conditions: NCI-H1299, 48 hours
Experimental: To determine the induction of polyploidy in H1299 cells, NCI-H1299 were seeded (4K/well) into 96-well culture plates (tissue culture grade, black, flat-clear bottom) and incubated overnight to produce cell-to-plate adherence. Inhibitors at varying concentrations were added into duplicate wells containing cells and culture media (RPMI 1640, 10% fetal calf serum) and incubated at 37 C for 48 hours. The plates were then washed with PBS and the adherent cells fixed by incubating with 3% formalin for 1 hour. After washing four times with PBS, the cells were then stained with Hoechst and subjected to fluorescent (360 i/460e) microscopic high content analysis to determine the effect of inhibitors on nuclear size. Polyploid cells (≧4N) were defined as those having nuclear area>750μ^2. Potency was expressed as the concentration of inhibitor necessary to induce polyploidy in 15% of cells (EC15) and was calculated from least squares analysis of the log dose-response.

Aurora B = target: T2, Aurora B (Homo sapiens, UniProt Q96GD4); experiment: Aurora B enzyme inhibition (time-resolved fluorescence, histone H3 peptide); format: biochemical; conditions: 1 mM ATP
T2 construct: Active Aurora B enzyme (recombinant residues 1-344)
Procedure, shortened: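 IC50s came from an exponential fit of inhibition against inhibitor concentration, with phosphorylation read as the 665/615 nm time-resolved fluorescence ratio after EDTA stop using Eu-anti-phospho-H3 and SA-APC. The 1 h reaction used Aurora B 1-344 plus GST-INCENP, biotin-histone H3 1-21 peptide and 1 mM ATP in pH 7.4 HEPES buffer.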

KDR = KDR (Homo sapiens, UniProt P35968); experiment: KDR HTRF in vitro kinase assay; format: biochemical; parameters: purified enzyme (His6-KDR 789-1354, MW 63 kD); His6 (N); conditions: 1 mM ATP; read-out: KDR enzyme inhibition data (Ki)
Procedure, shortened: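 His6-KDR 789-1354 (7 ng/well) with 0.5 μM biotinylated peptide substrate and 1 mM ATP in HEPES pH 7.1, MgCl2/MnCl2, 60 min at room temperature. EDTA-quenched, detected by streptavidin-XL-665 plus Eu-kryptate anti-phosphotyrosine HTRF after 3 h; IC50 from 620/665 nm ratio.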

Sequence of KDR (P35968 789-1354): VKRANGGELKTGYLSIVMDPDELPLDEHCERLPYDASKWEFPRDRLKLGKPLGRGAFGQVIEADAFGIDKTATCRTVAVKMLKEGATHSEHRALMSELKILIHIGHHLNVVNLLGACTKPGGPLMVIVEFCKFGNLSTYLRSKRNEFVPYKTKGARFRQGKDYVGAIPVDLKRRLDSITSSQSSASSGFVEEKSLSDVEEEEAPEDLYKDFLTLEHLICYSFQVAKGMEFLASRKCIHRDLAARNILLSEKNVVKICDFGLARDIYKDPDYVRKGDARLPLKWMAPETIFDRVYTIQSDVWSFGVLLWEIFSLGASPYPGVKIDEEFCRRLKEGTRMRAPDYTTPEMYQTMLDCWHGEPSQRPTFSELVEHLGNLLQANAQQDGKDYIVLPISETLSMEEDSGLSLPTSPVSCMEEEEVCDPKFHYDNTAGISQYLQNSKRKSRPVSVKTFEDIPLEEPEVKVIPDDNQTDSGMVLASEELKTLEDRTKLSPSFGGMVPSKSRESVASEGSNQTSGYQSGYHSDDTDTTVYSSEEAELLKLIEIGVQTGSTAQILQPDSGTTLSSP
T2 sequence (Q96GD4 whole entry, the tested form may be a part): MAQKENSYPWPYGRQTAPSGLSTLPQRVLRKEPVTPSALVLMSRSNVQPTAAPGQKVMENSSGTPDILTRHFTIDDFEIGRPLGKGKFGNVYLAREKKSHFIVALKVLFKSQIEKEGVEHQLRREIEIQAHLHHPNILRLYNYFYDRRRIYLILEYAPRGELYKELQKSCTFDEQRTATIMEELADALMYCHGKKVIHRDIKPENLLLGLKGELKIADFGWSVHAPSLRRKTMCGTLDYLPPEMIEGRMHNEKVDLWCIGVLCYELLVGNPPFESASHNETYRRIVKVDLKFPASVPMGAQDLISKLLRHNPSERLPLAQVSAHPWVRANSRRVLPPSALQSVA
T2 sequence (Q9NQS7 826-918 partner limits assumed): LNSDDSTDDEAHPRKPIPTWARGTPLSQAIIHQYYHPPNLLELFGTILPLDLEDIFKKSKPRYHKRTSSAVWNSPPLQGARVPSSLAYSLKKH

| Compound | Ki (Aurora A) | Ki (Aurora B) | Ki (KDR) | EC15 (concentration of inhibitor necessary to induce polyploidy in 15% of cells) (NCI-H1299 cells) |
| --- | --- | --- | --- | --- |
| Cn1cc(Nc2ncc(C(F)(F)F)c(N[C@@H]3CCC[C@@H]3C(N)=O)n2)cn1.Cn1cc(Nc2ncc(C(F)(F)F)c(N[C@H]3CCC[C@H]3C(N)=O)n2)cn1 (mixture of isomers) [Example 25, (1S,2R)-2-{[2-[(1-methyl-1H-pyrazol-4-yl)amino]-5-(trifluoromethyl)pyrimidin-4-yl]amino}cyclopentanecarboxamide and (1R,2S)-2-{[2-[(1-methyl-1H-pyrazol-4-yl)amino]-5-(trifluoromethyl)pyrimidin-4-yl]amino}cyclopentanecarboxamide] | 100 to 1000 nM | < 100 nM | 100 to 1000 nM | A (“A” represents an EC15 of less than 0.1 μM) |
| Cn1cc(Nc2ncc(C(F)(F)F)c(N[C@@H]3CC=CC[C@@H]3C(N)=O)n2)cn1.Cn1cc(Nc2ncc(C(F)(F)F)c(N[C@H]3CC=CC[C@H]3C(N)=O)n2)cn1 (mixture of isomers) [Example 26, (1S,6R)-6-{[2-[(1-methyl-1H-pyrazol-4-yl)amino]-5-(trifluoromethyl)pyrimidin-4-yl]amino}cyclohex-3-ene-1-carboxamide and (1R,6S)-6-{[2-[(1-methyl-1H-pyrazol-4-yl)amino]-5-(trifluoromethyl)pyrimidin-4-yl]amino}cyclohex-3-ene-1-carboxamide] | 1000 to 5000 nM | < 100 nM | 1000 to 5000 nM | A (“A” represents an EC15 of less than 0.1 μM) |
| Cn1cc(Nc2ncc(Cl)c(N[C@@H]3[C@H](C(N)=O)[C@@H]4C=C[C@H]3C4)n2)cn1.Cn1cc(Nc2ncc(Cl)c(N[C@H]3[C@@H](C(N)=O)[C@H]4C=C[C@@H]3C4)n2)cn1 (mixture of isomers) [Example 120, (1S,2R,3S,4R)-3-({5-chloro-2-[(1-methyl-1H-pyrazol-4-yl)amino]pyrimidin-4-yl}amino)bicyclo[2.2.1]hept-5-ene-2-carboxamide and (1R,2S,3R,4S)-3-({5-chloro-2-[(1-methyl-1H-pyrazol-4-yl)amino]pyrimidin-4-yl}amino)bicyclo[2.2.1]hept-5-ene-2-carboxamide] | < 100 nM | < 100 nM | < 100 nM | B (“B” represents an EC15 of between 0.1 μM and 1 μM) |
| (1S,2S,3R,4R)-3-({5-fluoro-2-[(1-methyl-1H-pyrazol-4-yl)amino]pyrimidin-4-yl}amino)bicyclo[2.2.1]hept-5-ene-2-carboxamide and (1R,2R,3S,4S)-3-({5-fluoro-2-[(1-methyl-1H-pyrazol-4-yl)amino]pyrimidin-4-yl}amino)bicyclo[2.2.1]hept-5-ene-2-carboxamide [Example 1] | < 100 nM | < 100 nM | 100 to 1000 nM | B (“B” represents an EC15 of between 0.1 μM and 1 μM) |

Second part, led by results:

| Ki (Aurora A) | Ki (Aurora B) | Ki (KDR) | Compound | EC15 (concentration of inhibitor necessary to induce polyploidy in 15% of cells) (NCI-H1299 cells) |
| --- | --- | --- | --- | --- |
| 100 to 1000 nM | 100 to 1000 nM | 100 to 1000 nM | Cc1cnc(Nc2cnn(CCO)c2)nc1N[C@@H]1[C@H](C(N)=O)[C@H]2C=C[C@@H]1C2.Cc1cnc(Nc2cnn(CCO)c2)nc1N[C@H]1[C@@H](C(N)=O)[C@@H]2C=C[C@H]1C2 (mixture of isomers) [Example 18, (1S,2S,3R,4R)-3-[(2-{[1-(2-hydroxyethyl)-1H-pyrazol-4-yl]amino}-5-methylpyrimidin-4-yl)amino]bicyclo[2.2.1]hept-5-ene-2-carboxamide and (1R,2R,3S,4S)-3-[(2-{[1-(2-hydroxyethyl)-1H-pyrazol-4-yl]amino}-5-methylpyrimidin-4-yl)amino]bicyclo[2.2.1]hept-5-ene-2-carboxamide] | A (“A” represents an EC15 of less than 0.1 μM) |
| 100 to 1000 nM | < 100 nM | 100 to 1000 nM | Cn1cc(Nc2ncc(C(F)(F)F)c(N[C@@H]3C[C@H]4CC[C@@H]3C4)n2)cn1.Cn1cc(Nc2ncc(C(F)(F)F)c(N[C@H]3C[C@@H]4CC[C@H]3C4)n2)cn1 (mixture of isomers) [Example 23, N^4-[(1S,2S,4R)-bicyclo[2.2.1]hept-2-yl]-N^2-(1-methyl-1H-pyrazol-4-yl)-5-(trifluoromethyl)pyrimidine-2,4-diamine and N^4-[(1R,2R,4S)-bicyclo[2.2.1]hept-2-yl]-N^2-(1-methyl-1H-pyrazol-4-yl)-5-(trifluoromethyl)pyrimidine-2,4-diamine] | B (“B” represents an EC15 of between 0.1 μM and 1 μM) |

From patent publication US8426408B2, “Pyrimidine inhibitors of kinases” (AbbVie Inc., priority 2009, dated 2013)
